Results as given in patent US20230173018A1, “CASPOFUNGIN DERIVATIVES AND ASSAYS FOR EVALUATING ANTIFUNGAL TREATMENT EFFICACY” (priority 2020, published 2023).
≈ marks a conversion by molar mass, not a printed value. Read-outs that look alike come from different tables or passages of the source.

Experiments:
Type in all cases: cell-based
C. albicans SN152 = assay: MIC, broth double dilution; conditions: strain no. 5, C. albicans SN152
Source text: (§1) The antifungal activities of compounds 1a, 1 and 2 (collectively: caspofungin derivatives) were compared to that of caspofungin and CSF-BOD using a panel of 49 C. albicans and C. glabrata strains (Tables 1 and 2). The panel included ATCC strains and clinical isolates as well a collection of caspofungin-responsive strains and their corresponding isogenic caspofungin-resistant derivatives, constructed by introducing point mutations within and near the defined hotspots in the FKS1 and/or FKS2 genes of the GS complex. Minimal inhibitory concentration (MIC) values for all strains were determined using the broth double dilution method and are summarized in FIG. 2 and Table 2. […] The clinical breakpoints (threshold) for caspofungin-resistance in C. albicans and C. glabrata are 1 μg/mL and 0.5 μg/mL, respectively.

[1] = test system: C. glabrata T-983 (11-079); assay: MIC, broth double dilution
Source text: as §1

C. glabrata T-192 (1775) = assay: MIC, broth double dilution
Source text: as §1

[2] = test system: C. glabrata T-982 (11-181); assay: MIC, broth double dilution
Source text: as §1

[3] = test system: C. glabrata T-984 (11-078); assay: MIC, broth double dilution
Source text: as §1

C. glabrata ATCC 66032 = assay: MIC, broth double dilution; conditions: strain no. 40, C. glabrata ATCC 66032
Source text: as §1

C. glabrata TGL00065 = assay: microbe, parasite or virus in culture
Source text: as §1

C. albicans SN95 = assay: microbe, parasite or virus in culture; conditions: strain no. 8, SN95, parental RM1000
Source text: as §1

[4] = test system: C. albicans DPL1016 (DP-A15-10); assay: microbe, parasite or virus in culture
Source text: as §1

[5] = test system: C. albicans T-2068 (DP-C42); assay: microbe, parasite or virus in culture
Source text: as §1

C. glabrata DPL1086 = assay: microbe, parasite or virus in culture
Source text: as §1

C. albicans CG72 = assay: microbe, parasite or virus in culture; conditions: strain no. 7, CG72, parental CAM, pKE1:GFP-YPT72
Source text: as §1

C. glabrata TGL00054 = assay: microbe, parasite or virus in culture
Source text: as §1

C. glabrata TGL00294 = assay: microbe, parasite or virus in culture
Source text: as §1

C. glabrata TGL00263 = assay: microbe, parasite or virus in culture
Source text: as §1

C. glabrata TGL00277 = assay: microbe, parasite or virus in culture
Source text: as §1

[6] = test system: C. albicans T-2077 (DP-205); assay: microbe, parasite or virus in culture
Source text: as §1

C. glabrata TGL00253 = assay: microbe, parasite or virus in culture
Source text: as §1

C. glabrata CST78 = assay: microbe, parasite or virus in culture; conditions: strain no. 26, C. glabrata CST78
Source text: as §1

C. glabrata TGL00056 = assay: microbe, parasite or virus in culture
Source text: as §1

C. glabrata TGL00091 = assay: microbe, parasite or virus in culture
Source text: as §1

C. glabrata TGL00293 = assay: microbe, parasite or virus in culture
Source text: as §1

C. glabrata TGL00264 = assay: microbe, parasite or virus in culture
Source text: as §1

[7] = test system: C. albicans T-2076 (DP-194); assay: microbe, parasite or virus in culture
Source text: as §1

C. glabrata TGL00107 = assay: microbe, parasite or virus in culture
Source text: as §1

[8] = test system: C. glabrata T-985 (11-076); assay: microbe, parasite or virus in culture; conditions: strain no. 49, T-985 (11-076), clinical isolate
Source text: as §1

C. glabrata TGL00275 = assay: microbe, parasite or virus in culture
Source text: as §1

[9] = test system: C. albicans DPL1015 (DP-A15); assay: microbe, parasite or virus in culture
Source text: as §1

[10] = test system: C. albicans T-2074 (DP-122); assay: microbe, parasite or virus in culture
Source text: as §1

C. glabrata TGL00256 = assay: microbe, parasite or virus in culture
Source text: as §1

[11] = test system: C. albicans T-2069 (DP-85); assay: microbe, parasite or virus in culture
Source text: as §1

C. glabrata TGL00291 = assay: microbe, parasite or virus in culture
Source text: as §1

C. glabrata TGL00258 = assay: microbe, parasite or virus in culture
Source text: as §1

C. glabrata TGL00265 = assay: microbe, parasite or virus in culture
Source text: as §1

[12] = Candida albicans, read-out: MIC
[13] = Nakaseomyces glabratus, read-out: MIC

CC[C@H](C)C[C@H](C)CCCCCCCCC(=O)N[C@H]1C[C@@H](O)[C@@H](NCCN)NC(=O)[C@@H]2[C@@H](O)CCN2C(=O)[C@H]([C@H](O)CCN)NC(=O)[C@H]([C@H](O)[C@@H](O)c2ccc(O)cc2)NC(=O)[C@@H]2C[C@@H](O)CN2C(=O)[C@H]([C@@H](C)O)NC1=O [Caspofungin]
MIC (C. albicans SN152; [12]): 0.031 µg/mL (≈ 0.0284 µM)
MIC ([1]; Nakaseomyces glabratus): 0.063 µg/mL (≈ 0.0576 µM)
MIC (C. glabrata T-192 (1775); Nakaseomyces glabratus): 0.063 µg/mL (≈ 0.0576 µM)
MIC ([2]; Nakaseomyces glabratus): 0.063 µg/mL (≈ 0.0576 µM)
MIC ([3]; Nakaseomyces glabratus): 0.063 µg/mL (≈ 0.0576 µM)
MIC (C. glabrata ATCC 66032; Nakaseomyces glabratus, ATCC66032, read-out: MIC): 0.125 µg/mL (≈ 0.114 µM)
MIC (C. glabrata TGL00065; Nakaseomyces glabratus, TGL00065): > 64 µg/mL
MIC (C. albicans SN95; [12]): 0.063 µg/mL (≈ 0.0576 µM)
MIC ([4]; Candida albicans, SC5314): 16 µg/mL (≈ 14.6 µM)
MIC ([5]; Candida albicans, SC5314): 16 µg/mL (≈ 14.6 µM)
MIC (C. glabrata DPL1086; Nakaseomyces glabratus, ATCC90030): 2 µg/mL (≈ 1.83 µM)
MIC (C. albicans CG72; [12]): 0.031 µg/mL (≈ 0.0284 µM)
MIC (C. glabrata TGL00054; Nakaseomyces glabratus, TGL00054): > 64 µg/mL
MIC (C. glabrata TGL00294; Nakaseomyces glabratus, TGL00294): 16 µg/mL (≈ 14.6 µM)
MIC (C. glabrata TGL00263; Nakaseomyces glabratus, TGL00263): 8 µg/mL (≈ 7.32 µM)
MIC (C. glabrata TGL00277; Nakaseomyces glabratus, TGL00277): > 64 µg/mL
MIC ([6]; Candida albicans): > 64 µg/mL
MIC (C. glabrata TGL00253; Nakaseomyces glabratus, TGL00253): > 64 µg/mL
MIC (C. glabrata CST78; [13]): 0.125 µg/mL (≈ 0.114 µM)
MIC (C. glabrata TGL00056; Nakaseomyces glabratus, TGL00056): > 64 µg/mL
MIC (C. glabrata TGL00091; Nakaseomyces glabratus, TGL00091): > 64 µg/mL
MIC (C. glabrata TGL00293; Nakaseomyces glabratus, TGL00293): > 64 µg/mL
MIC (C. glabrata TGL00264; Nakaseomyces glabratus, TGL00264): 2 µg/mL (≈ 1.83 µM)
MIC ([7]; Candida albicans): 2 µg/mL (≈ 1.83 µM)
MIC (C. glabrata TGL00107; Nakaseomyces glabratus, TGL00107): > 64 µg/mL
MIC [8, 13]: 0.125 µg/mL (≈ 0.114 µM)
MIC (C. glabrata TGL00275; Nakaseomyces glabratus, TGL00275): 8 µg/mL (≈ 7.32 µM)
MIC ([9]; Candida albicans, SC5314): 4 µg/mL (≈ 3.66 µM)
MIC ([10]; Candida albicans): 1 µg/mL (≈ 0.915 µM)
MIC (C. glabrata TGL00256; Nakaseomyces glabratus, TGL00256): 1 µg/mL (≈ 0.915 µM)
MIC ([11]; Candida albicans): 16 µg/mL (≈ 14.6 µM)
MIC (C. glabrata TGL00291; Nakaseomyces glabratus, TGL00291): > 64 µg/mL
MIC (C. glabrata TGL00258; Nakaseomyces glabratus, TGL00258): > 64 µg/mL
MIC (C. glabrata TGL00265; Nakaseomyces glabratus, TGL00265): > 64 µg/mL

CC[C@H](C)C[C@H](C)CCCCCCCCC(=O)N[C@H]1C[C@@H](O)[C@@H](NCCN)NC(=O)[C@@H]2[C@@H](O)CCN2C(=O)[C@H]([C@H](O)CCN)NC(=O)[C@H]([C@H](O)[C@@H](O)c2ccc(OCc3cn(CCCNC(=O)c4ccc(-c5c6ccc(=[N+](C)C)cc-6oc6cc(N(C)C)ccc56)c(C(=O)[O-])c4)nn3)cc2)NC(=O)[C@@H]2C[C@@H](O)CN2C(=O)[C@H]([C@@H](C)O)NC1=O [Compound 1]
MIC (C. albicans SN152): 0.25 µg/mL (≈ 0.152 µM)
MIC ([1]; strain no. 47, T-983 (11-079), clinical isolate): 0.5 µg/mL (≈ 0.304 µM)
MIC (C. glabrata T-192 (1775); strain no. 44, T-192 (1775), clinical isolate): 0.5 µg/mL (≈ 0.304 µM)
MIC ([2]; strain no. 46, T-982 (11-181), clinical isolate): 0.5 µg/mL (≈ 0.304 µM)
MIC ([3]; strain no. 48, T-984 (11-078), clinical isolate): 0.5 µg/mL (≈ 0.304 µM)
MIC (C. glabrata ATCC 66032): 1 µg/mL (≈ 0.608 µM)
MIC (C. glabrata TGL00065; strain no. 27, TGL00065, FKS mutant): >64 µg/mL
MIC (C. albicans SN95): 0.5 µg/mL (≈ 0.304 µM)
MIC ([4]; strain no. 3, DPL1016 (DP-A15-10), parental SC5314, FKS1 mutant HS1-S645P): 64 µg/mL (≈ 38.9 µM)
MIC ([5]; strain no. 4, T-2068 (DP-C42), parental SC5314, FKS1 HS1-F641S mutation): 64 µg/mL (≈ 38.9 µM)
MIC (C. glabrata DPL1086; strain no. 17, DPL1086, parental ATCC 90030, FKS1 mutant HS1-S629P): 8 µg/mL (≈ 4.87 µM)
MIC (C. albicans CG72): 0.5 µg/mL (≈ 0.304 µM)
MIC (C. glabrata TGL00054; strain no. 19, TGL00054, parental CST109, FKS2 mutant): >64 µg/mL
MIC (C. glabrata TGL00294; strain no. 38, TGL00294, parental BG2, FKS mutant): >64 µg/mL
MIC (C. glabrata TGL00263; strain no. 28, TGL00263, parental CST78, FKS mutant): >64 µg/mL
MIC (C. glabrata TGL00277; strain no. 33, TGL00277, parental EF1620, FKS mutant): >64 µg/mL
MIC ([6]; strain no. 15, T-2077 (DP-205), clinical isolate, FKS1 HS1-S645P mutation): >64 µg/mL
MIC (C. glabrata TGL00253; strain no. 20, TGL00253, parental CST109, FKS2 mutant): >64 µg/mL
MIC (C. glabrata CST78): 1 µg/mL (≈ 0.608 µM)
MIC (C. glabrata TGL00056; strain no. 22, TGL00056, parental CST34, FKS mutant): >64 µg/mL
MIC (C. glabrata TGL00091; strain no. 35, TGL00091, FKS mutant): >64 µg/mL
MIC (C. glabrata TGL00293; strain no. 37, TGL00293, parental BG2, FKS mutant): >64 µg/mL
MIC (C. glabrata TGL00264; strain no. 29, TGL00264, parental CST78, FKS mutant): >64 µg/mL
MIC ([7]; strain no. 13, T-2076 (DP-194), clinical isolate, FKS1 HS1-S645F, HS2-R1361R/H mutation): 32 µg/mL (≈ 19.5 µM)
MIC (C. glabrata TGL00107; strain no. 23, TGL00107, parental CST34, FKS mutant): >64 µg/mL
MIC [8]: 1 µg/mL (≈ 0.608 µM)
MIC (C. glabrata TGL00275; strain no. 32, TGL00275, FKS mutant): 64 µg/mL (≈ 38.9 µM)
MIC ([9]; strain no. 2, DPL1015 (DP-A15), parental SC5314, FKS1 mutant HS1-S645S/P): 16 µg/mL (≈ 9.73 µM)
MIC ([10]; strain no. 12, T-2074 (DP-122), clinical isolate, FKS1 HS1-P649H mutation): 16 µg/mL (≈ 9.73 µM)
MIC (C. glabrata TGL00256; strain no. 24, TGL00256, parental CST34, FKS mutant): 4 µg/mL (≈ 2.43 µM)
MIC ([11]; strain no. 14, T-2069 (DP-85), clinical isolate, FKS1 HS1-S645F mutation): 64 µg/mL (≈ 38.9 µM)
MIC (C. glabrata TGL00291; strain no. 36, TGL00291, parental BG2, FKS mutant): >64 µg/mL
MIC (C. glabrata TGL00258; strain no. 25, TGL00258, parental CST34, FKS mutant): >64 µg/mL
MIC (C. glabrata TGL00265; strain no. 30, TGL00265, parental CST78, FKS mutant): >64 µg/mL
